Converted amounts (≈) assume the structure as drawn.
Columns and labels:
[1] = Volume of distribution at steady state in Sprague-Dawley rat; assay type: ADME, organism-based; conditions: in vivo, read-out: Vdss
[2] = Half life in Sprague-Dawley rat; assay type: ADME, organism-based; conditions: in vivo
[3] = Oral bioavailability in Sprague-Dawley rat at 2 mg/kg; assay type: ADME, organism-based; conditions: in vivo
[4] = Clearance in Sprague-Dawley rat at 0.25 mg/kg, iv; assay type: ADME, organism-based; conditions: in vivo
[5] = Intrinsic clearance in mouse liver microsomes; assay type: ADME; conditions: read-out: CLH
[6] = Fraction unbound in mouse plasma at 5 ug/ml by equilibrium dialysis method; assay type: ADME, cell-free
[7] = Intrinsic clearance in human liver microsomes; assay type: ADME; conditions: read-out: CLH
[8] = Fraction unbound in Sprague-Dawley rat plasma at 5 ug/ml by equilibrium dialysis method; assay type: ADME, cell-free
[9] = Intrinsic clearance in rat liver microsomes; assay type: ADME; conditions: read-out: CLH
Rattus norvegicus = organism: Rattus norvegicus; test: Unbound clearance in Sprague-Dawley rat at 5 ug/ml by equilibrium dialysis method; assay type: ADME, organism-based; conditions: in vivo
[10] = Fraction unbound in human plasma at 5 ug/ml by equilibrium dialysis method; assay type: ADME, cell-free
Mus musculus [11] = test: In vivo inhibition of HGF-induced phosphorylation of MET in Balb/c mouse liver assessed as time required for >90% inhibition at 10 mg/kg administered via oral gavage; assay type: functional
Cytochrome P450 3A4 [12] = molecular target: T1, Cytochrome P450 3A4 (Homo sapiens, UniProt P08684); test: (§1) Inhibition of CYP3A4 (unknown origin) in presence of NADPH; assay type: ADME
Plasma [13] = test: Unbound plasma concentration in Balb/c mouse at 10 mg/kg, administered via oral gavage measured at 6 hrs; assay type: ADME, organism-based; conditions: in vivo
[14] = Solubility of compound in SIF; assay type: physicochemical
[15] = Solubility of compound in PBS; assay type: physicochemical
Cytochrome P450 3A4 [16] = molecular target: T1, Cytochrome P450 3A4; test: Inhibition of CYP3A4 (unknown origin) in absence of NADPH; assay type: ADME
[17] = Solubility of compound in 0.01 N HCl; assay type: physicochemical
Mus musculus [18] = test: In vivo inhibition of HGF-induced phosphorylation of MET in Balb/c mouse liver assessed as phosphorylated cMET level at 10 mg/kg administered via oral gavage followed by HGF injection 6 hrs post dose by electrochemiluminescence immunoassay relative to control; assay type: functional; parameters: scale not given: the % may be the effect or the level left
Mus musculus [19] = test: In vivo inhibition of HGF-induced phosphorylation of MET in Balb/c mouse liver assessed as phosphorylated cMET level at 10 mg/kg administered via oral gavage followed by HGF injection 3 hrs post dose by electrochemiluminescence immunoassay relative to control; assay type: functional; parameters: scale not given: the % may be the effect or the level left
[20] = Volume of distribution at steady state in iv dosed Beagle dog; assay type: ADME, organism-based, Canis lupus familiaris; conditions: in vivo, read-out: Vdss
[21] = Oral bioavailability in Beagle dog at 30 mg/kg; assay type: ADME, organism-based, Canis lupus familiaris; conditions: in vivo
Mus musculus [22] = test: In vivo inhibition of HGF-induced phosphorylation of MET in Balb/c mouse liver assessed as phosphorylated cMET level at 10 mg/kg administered via oral gavage followed by HGF injection 12 hrs post dose by electrochemiluminescence immunoassay relative to control; assay type: functional; parameters: scale not given: the % may be the effect or the level left
[23] = Clearance in Beagle dog at 0.425 mg/kg, iv; assay type: ADME, organism-based, Canis lupus familiaris; conditions: in vivo
Mus musculus [24] = test: In vivo inhibition of HGF-induced phosphorylation of MET in Balb/c mouse liver assessed as phosphorylated cMET level at 10 mg/kg administered via oral gavage followed by HGF injection 9 hrs post dose by electrochemiluminescence immunoassay relative to control; assay type: functional; parameters: scale not given: the % may be the effect or the level left
Mus musculus [25] = test: In vivo inhibition of HGF-induced phosphorylation of MET in Balb/c mouse liver assessed as phosphorylated cMET level at 10 mg/kg administered via oral gavage followed by HGF injection 24 hrs post dose by electrochemiluminescence immunoassay relative to control; assay type: functional; parameters: scale not given: the % may be the effect or the level left
[26] = AUC(0 to infinity) in Beagle dog at 30 mg/kg, po; assay type: ADME, organism-based, Canis lupus familiaris; parameters: dose 30 mg/kg, time infinity, route oral; conditions: in vivo
[27] = AUC(0 to infinity) in Beagle dog at 10 mg/kg,po; assay type: ADME, organism-based, Canis lupus familiaris; parameters: dose 10 mg/kg, route oral, time infinity; conditions: in vivo
[28] = Oral bioavailability in Beagle dog at 10 mg/kg; assay type: ADME, organism-based, Canis lupus familiaris; conditions: in vivo
[29] = Half life in iv dosed Beagle dog; assay type: ADME, organism-based, Canis lupus familiaris; conditions: in vivo
Mus musculus [30] = test: In vivo inhibition of HGF-induced phosphorylation of MET in Balb/c mouse liver assessed as phosphorylated cMET level at 10 mg/kg administered via oral gavage followed by HGF injection 1 hr post dose by electrochemiluminescence immunoassay relative to control; assay type: functional; parameters: scale not given: the % may be the effect or the level left
Canis familiaris = organism: Canis familiaris; test: Unbound clearance in Beagle dog at 5 ug/ml by equilibrium dialysis method; assay type: ADME, organism-based, Canis lupus familiaris; conditions: in vivo
CYP3A4 = CYP3A4 (Homo sapiens, UniProt P08684); test: as §1; assay type: ADME
Plasma [31] = test: Unbound plasma concentration in Balb/c mouse at 30 mg/kg, administered via oral gavage measured at 6 hrs; assay type: ADME, organism-based; conditions: in vivo
Mus musculus [32] = test: In vivo inhibition of HGF-induced phosphorylation of MET in Balb/c mouse liver assessed as time required for >90% inhibition at 30 mg/kg administered via oral gavage; assay type: functional
[33] = molecular target: Hepatocyte growth factor receptor (Homo sapiens, UniProt P08581)
Description: Inhibition of HGF-mediated MET autophosphorylation in human PC3 cells preincubated for 1 hr followed by stimulation with human HGF measured after 10 mins by electrochemiluminescence immunoassay

[34] = Clearance in Sprague-Dawley rat at 0.3 mg/kg, iv; assay type: ADME, organism-based; conditions: in vivo
Plasma [35] = test: Unbound plasma concentration in Balb/c mouse at 10 mg/kg, administered via oral gavage measured at 12 hrs; assay type: ADME, organism-based; conditions: in vivo

SMILES	Vd [1] [L/kg]	half-life [2] [h]	bioavailability [3] [%]	clearance [4] [mL/min/kg]	microsomal CLint [5] [µL/min/mg]	fraction unbound at 5 ug/ml [6]	microsomal CLint [7] [µL/min/mg]	fraction unbound at 5 ug/ml [8]	microsomal CLint [9] [µL/min/mg]	CL free (Rattus norvegicus) [mL/min/kg]	fraction unbound at 5 ug/ml [10]	solubility [15] [µg/mL]	other results
COc1cnc2ccn([C@H](C)c3nnc4c(F)cc(-c5cc(C)no5)cn34)c(=O)c2c1	0.5	1.1	31	7.67	–	–	–	–	–	–	–	–	–
COCCOc1cnc2ccn([C@H](C)c3nnc4ccc(-c5cnn(C)c5)cn34)c(=O)c2c1	1.3	1.8	25	11.7	7	0.424	8	0.296	< 5	40	0.498	–	–
COCCOc1cnc2ccc([C@H](C)c3nnc4c(F)cc(-c5cc(C)no5)cn34)cc2c1	–	4.2	–	–	–	–	–	–	–	433	–	52 (≈ 116 µM)	Time (Mus musculus [11]): 6 h; IC50 (Cytochrome P450 3A4 [12]): > 50 µM; Cp(f) (Plasma [13]): 141 nM; solubility [14]: 126 µg/mL (≈ 282 µM); IC50 (Cytochrome P450 3A4 [16]): > 50 µM; solubility [17]: > 200 µg/mL
COCCOc1cnc2ccn([C@H](C)c3nnc4ccc(-c5cc(C)no5)cn34)c(=O)c2c1	1	2.4	59	4.83	23	0.435	7	0.19	9	25	0.338	–	Activity (Mus musculus [18]): 108%; Activity (Mus musculus [19]): 109%; Vd [20]: 1.4 L/kg; bioavailability [21]: 87%; Activity (Mus musculus [22]): 95%; clearance [23]: 5 mL/min/kg; Activity (Mus musculus [24]): 108%; Activity (Mus musculus [25]): 50%; AUC(0-inf) [26]: 94100 ng·h/mL; AUC(0-inf) [27]: 19300 ng·h/mL; bioavailability [28]: 53%; half-life [29]: 4.3 h; Activity (Mus musculus [30]): 109%; CL free (Canis familiaris): 11.3 mL/min/kg
C[C@H](c1nnc2c(F)cc(-c3cnn(C)c3)cn12)n1ccc2ncccc2c1=O	0.7	4	31	4.67	< 5	0.376	< 5	0.271	8	17	0.478	–	–
COc1cnc2c(NCc3nnc4ccc(-c5cc(C)ns5)nn34)ccnc2c1	–	1.8	–	3.17	–	–	–	–	–	433	–	3 (≈ 7.42 µM)	IC50 (CYP3A4): > 50 µM; Cp(f) (Plasma [31]): 9 nM; solubility [14]: 13 µg/mL (≈ 32.1 µM); Time (Mus musculus [32]): 6 h; solubility [17]: > 200 µg/mL
COc1ccc2c(OCc3nnc4ccc(-c5cc(F)c(F)c(F)c5)nn34)ccnc2c1	–	3.5	–	–	–	–	–	–	–	967	–	4 (≈ 9.15 µM)	IC50 [33]: 0.008 µM; Cp(f) (Plasma [31]): 34 nM; clearance [34]: 1 mL/min/kg; solubility [14]: 17 µg/mL (≈ 38.9 µM); Time (Mus musculus [32]): 6 h; solubility [17]: 85 µg/mL (≈ 194 µM)
COc1cnc2ccn([C@H](C)c3nnc4ccc(-c5cnn(C)c5)cn34)c(=O)c2c1	1.2	1.7	36	10.8	7	0.409	< 5	0.206	9	53.3	0.286	–	–
COCCOc1cnc2ccc([C@H](C)n3nnc4ccn(-c5cc(C)ns5)c(=O)c43)cc2c1	–	3.4	–	–	–	–	–	–	–	517	–	9 (≈ 19.5 µM)	Time (Mus musculus [11]): 12 h; IC50 (Cytochrome P450 3A4 [12]): 21 µM; IC50 (Cytochrome P450 3A4 [16]): 21 µM; Cp(f) (Plasma [35]): 20 nM
COCCOc1cnc2ccn([C@H](C)c3nnc4c(F)cc(-c5cc(C)no5)cn34)c(=O)c2c1	0.7	2.9	54	3.33	14	0.317	20	0.08	16	40	0.409	–	Activity (Mus musculus [18]): 99%; Activity (Mus musculus [19]): 100%; Activity (Mus musculus [22]): 51%; Activity (Mus musculus [24]): 99%; Activity (Mus musculus [25]): 28%; Activity (Mus musculus [30]): 101%
COc1cnc2ccn([C@H](C)c3nnc4c(F)cc(-c5cnn(C)c5)cn34)c(=O)c2c1	0.5	3.6	43	2	7	0.353	< 5	0.139	12	15	0.309	–	–
